For this series, the system named is PBM cells. The series is described as follows: Cytotoxicity in uninfected PHA-stimulated human PBM cells. As to conditions: read-out: Cytotoxicity (IC50) PBM cells, 6 days, cell growth.

Among the data in PMC7733237 (Organic & biomolecular chemistry, 2009) are IC50 values, retold here.

Broadly, the IC50 is the midpoint of a concentration-inhibition curve. In the case of `Cc1cn([C@H]2C[C@H](N=[N+]=[N-])[C@@H](CO)O2)c(=O)[nH]c1=O` [AZT, 3′-azido-3′-deoxythymidine], the half-inhibitory concentration (IC50) is greater than 100 µM.
